Data published in ChEMBL document CHEMBL1125141, “Structure-activity relationships of N2-substituted guanines as inhibitors of HSV1 and HSV2 thymidine kinases” (J Med Chem, 1990).

Biological target: T1, Thymidine kinase (Human alphaherpesvirus 1, UniProt Q9QNF7)
T1 sequence (Q9QNF7 whole entry): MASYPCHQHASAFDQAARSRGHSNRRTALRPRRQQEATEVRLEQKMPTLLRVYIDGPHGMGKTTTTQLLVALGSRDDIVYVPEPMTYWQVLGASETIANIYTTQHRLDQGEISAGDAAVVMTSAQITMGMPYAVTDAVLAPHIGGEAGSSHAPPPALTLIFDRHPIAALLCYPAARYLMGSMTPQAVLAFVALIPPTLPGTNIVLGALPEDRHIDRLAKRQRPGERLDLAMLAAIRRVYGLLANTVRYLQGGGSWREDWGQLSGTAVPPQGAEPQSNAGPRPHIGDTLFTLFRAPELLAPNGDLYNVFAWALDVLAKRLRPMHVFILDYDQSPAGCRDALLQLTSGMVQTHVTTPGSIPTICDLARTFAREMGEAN
Experiment: Inhibition of TdR phosphorylation using thymidine kinase (TK) assay for herpes simplex virus type 1 (HSV-1).
Type: functional

SMILES	Ki
CCCCCCNC1=NC(=O)C2N=CN([C@H]3C[C@H](O)[C@@H](CO)O3)C2=N1 (some centres not stated)	2.6 µM

Biological target: T1, Thymidine kinase
Experiment: Inhibition of TdR phosphorylation using thymidine kinase assay for herpes simplex virus type 1
Type: functional

SMILES	IC50
CCCCc1ccc(Nc2nc3nc[nH]c3c(=O)[nH]2)cc1	50 µM
O=c1nc(Nc2cccc(CO)c2)[nH]c2nc[nH]c12	25 µM
O=c1[nH]c(NCc2ccc(Cl)cc2)nc2nc[nH]c12	8.5 µM
OCCCCCNc1nc(O)c2[nH]cnc2n1	100 µM
Oc1[nH]c(Nc2ccc(F)c(Cl)c2)nc2ncnc1-2	8 µM
O=c1[nH]c(Nc2ccc(F)c(F)c2)nc2nc[nH]c12	50 µM
CCc1cccc(Nc2nc3nc[nH]c3c(=O)[nH]2)c1	2.5 µM
Cc1ccc(Nc2nc3nc[nH]c3c(=O)[nH]2)cc1	50 µM
O=c1[nH]c(Nc2cccc(C(F)(F)F)c2)nc2nc[nH]c12	0.15 µM
Oc1[nH]c(Nc2cccc(Cl)c2)nc2ncnc1-2	1.3 µM
Oc1[nH]c(Nc2ccc(Br)cc2)nc2ncnc1-2	1 µM
O=c1[nH]c(Nc2ccc(O)cc2)nc2nc[nH]c12	140 µM
Oc1[nH]c(Nc2ccc3ccccc3c2)nc2ncnc1-2	40 µM
Oc1[nH]c(Nc2ccc(C(F)(F)F)cc2)nc2ncnc1-2	30 µM
CCCCCCNc1nc(O)c2[nH]cnc2n1	55 µM
Oc1[nH]c(Nc2ccc(Br)c(Br)c2)nc2ncnc1-2	3 µM
